Test results as given in article PMC8646019, “Azvudine is a thymus-homing anti-SARS-CoV-2 drug effective in treating COVID-19 patients” (Signal Transduction and Targeted Therapy, 2021).
Read-outs that look alike come from different tables or passages of the source.

Tests used:
[1] = Biodistribution and metabolism of remdesivir in rats (UHPLC-MS/MS); type: in vivo, Sprague-Dawley rats; details: rat; for Concentration in PBMCs / Concentration in epididymis / Concentration in lung / concentration at 2 h / concentration at 6 h / Concentration in brain / Concentration in heart / Concentration in liver: GS-5734 100 mg/kg i.p.; for Concentration in PBMCs / Concentration in epididymis / Concentration in lung / Concentration in brain / Concentration in heart / Concentration in liver: average n=5; for concentration at 2 h / concentration at 6 h: male, Sprague-Dawley, in vivo, 100 mg/kg
Procedure: 10 male Sprague-Dawley rats (250 ± 25 g) were purchased from Vital River Laboratories Co., LTD (Beijng, China). The rats were divided randomly into two groups with five rats in each, and were administered with GS-5734 at a single dose of 100 mg/kg, i.p. At the time point of 2h and 6h after drug administration, rats in one group were dissected with euthanization and blood samples as well as heart, liver, spleen, lung, kidney, brain, thymus, testis, and epididymis were collected for UHPLC-MS/MS analysis as mentioned above.
The analysis method was like that for FNC expect that the flow rate was set at 0.4 mL/min and the gradient elution was employed using the following program: 0-1.5min, 100-65%B; 1.5-4min, 65-60%B; 4-5min, 60-56%B. Multiple-reaction monitoring (MRM) mode was performed using the characteristic precursor to product ion transitions (Supplementary Table 4b).
The standard curves of blank kidney tissue matrix, plasma matrix and PBMCs matrix were applied for quantitative analysis of GS-5734 and its metabolites. GS-5734, Nuc, Nuc-MP and Nuc-TP were quantified using their own standard curves, and the metabolites of GS-5734 (Ala-Nuc and Nuc-DP) were quantified using Nuc-MP standard curves.
Figure. S4. […] 10 male Sprague-Dawley rats were administered with GS-5734 at a single dose of 100 mg/kg, i.p. At the time point of 2 h and 6 h after drug administration, five rats were dissected. The blood samples as well as heart, liver, spleen, lung, kidney, brain, thymus, testis, and epididymis were collected for UHPLC-MS/MS analysis performed on a UHPLC system (1290 series, Agilent Technologies, US) coupled to a triple quadrupole mass spectrometer (Agilent 6470 QQQ). a.

SARS-CoV-2 [2] = experiment: Anti-SARS-CoV-2 assay in Vero E6 cells (qRT-PCR of viral RNA copies, CPE); type: cell-based
[3] = Cytotoxicity in Vero E6 cells (Cell Titer 96 Aqueous one Solution Cell Proliferation Assay); type: cell-based; details: African green monkey, Vero E6, 48 h
Procedure: (§1) The cytotoxicity of the tested drugs in Vero E6 or Calu-3 Cells were determined by Cell Titer 96® Aqueous one Solution Cell Proliferation Assay (Promega, US). To evaluate the antiviral efficacy of the drugs, Vero E6 or Calu-3 cells were cultured overnight in 96-well plate with a density of 4 ×10^4 cells/well. Cells were pre-treated with the different doses of the indicated antivirals for 1 h. Viruses (MOI=0.05) were subsequently added to cells, followed by 1 h incubation. Then, the virus-drug mixture was removed and cells were further cultured with fresh drug-containing medium. At 48 h post infection (pi), the culture supernatant was collected and lysed in Trizol (Thermo, Cat no. 15596018) for further analysis. Remdesivir was tested as reference.

SARS-CoV-2 [4] = experiment: Anti-SARS-CoV-2 assay in Calu-3 cells (qRT-PCR); type: cell-based
[5] = Cytotoxicity in Calu-3 cells (Cell Titer 96 Aqueous one Solution Cell Proliferation Assay); type: cell-based; details: human, Calu-3, 48 h
Procedure: as §1

HCoV-OC43 = experiment: Anti-HCoV-OC43 assay in H460 cells (CPE, Western blot, immunofluorescence); type: cell-based
[6] = system: SARS-CoV-2 and HCoV-OC43 coronavirus; experiment: Anti-coronavirus activity in vitro, summary over viruses and cells; type: cell-based; details: depending on viruses or cells

With `N#C[C@@]1(c2ccc3c(N)ncnn23)O[C@H](COP(=O)(O)OP(=O)(O)O)[C@@H](O)[C@H]1O` [Nuc-DP] the “Concentration in PBMCs” value ([1]; 2 h) was 0.15 ng/10^6 cells, the Concentration in epididymis ([1]; 2 h) was 33.09 ng/g tissue and the Concentration in lung ([1]; 2 h) was 146.16 ng/g tissue. The “Concentration in PBMCs” value ([1]; 6 h) was 0.14 ng/10^6 cells, the Concentration in epididymis ([1]; 6 h) was 49.65 ng/g tissue and the Concentration in lung ([1]; 6 h) was 118.94 ng/g tissue.
In the case of `CCC(CC)COC(=O)[C@H](C)N[P@](=O)(OC[C@H]1O[C@@](C#N)(c2ccc3c(N)ncnn23)[C@H](O)[C@@H]1O)Oc1ccccc1` [Remdesivir, reference compound], the concentration at 2 h ([1]; 2 h, average n=5, read-out: Concentration in brain) is reported as 0.61 ng/g, the concentration at 2 h ([1]; 2 h, average n=5, read-out: Concentration in epididymis) is reported as 42.1 ng/g and the concentration at 2 h ([1]; 2 h, average n=5, read-out: Concentration in heart) is reported as 5.12 ng/g. It also gave a concentration at 2 h ([1]; 2 h, average n=5, read-out: Concentration in kidney) of 25.4 ng/g, a concentration at 2 h ([1]; 2 h, average n=5, read-out: Concentration in liver) of 38.4 ng/g and a concentration at 2 h ([1]; 2 h, average n=5, read-out: Concentration in lung) of 5.14 ng/g. It also gave a concentration at 2 h ([1]; 2 h, average n=5, read-out: Concentration in spleen) of 39.4 ng/g, a concentration at 2 h ([1]; 2 h, average n=5, read-out: Concentration in testis) of 2.88 ng/g and a concentration at 2 h ([1]; 2 h, average n=5, read-out: Concentration in thymus) of 29.9 ng/g. For the same compound, the concentration at 6 h ([1]; 6 h, average n=5, read-out: Concentration in brain) was 0.78 ng/g, the concentration at 6 h ([1]; 6 h, average n=5, read-out: Concentration in epididymis) was 0.6 ng/g and the concentration at 6 h ([1]; 6 h, average n=5, read-out: Concentration in heart) was 28.6 ng/g. It also gave a concentration at 6 h ([1]; 6 h, average n=5, read-out: Concentration in kidney) of 0.84 ng/g, a concentration at 6 h ([1]; 6 h, average n=5, read-out: Concentration in liver) of 13.1 ng/g and a concentration at 6 h ([1]; 6 h, average n=5, read-out: Concentration in lung) of 0.87 ng/g. It also gave a concentration at 6 h ([1]; 6 h, average n=5, read-out: Concentration in spleen) of 0.32 ng/g and a concentration at 6 h ([1]; 6 h, average n=5, read-out: Concentration in thymus) of 2.74 ng/g.
In the case of `N#C[C@@]1(c2ccc3c(N)ncnn23)O[C@H](COP(=O)(O)OP(=O)(O)OP(=O)(O)O)[C@@H](O)[C@H]1O` [Nuc-TP], the “Concentration in PBMCs” value ([1]; 2 h) is reported as 12.32 ng/10^6 cells, the Concentration in epididymis ([1]; 2 h) is reported as 486.87 ng/g tissue and the Concentration in lung ([1]; 2 h) is reported as 3168.31 ng/g tissue. The “Concentration in PBMCs” value ([1]; 6 h) was 12.82 ng/10^6 cells, the Concentration in epididymis ([1]; 6 h) was 1225.27 ng/g tissue and the Concentration in lung ([1]; 6 h) was 2057.66 ng/g tissue. For the same compound, the “level of Nuc-TP in the thymus” value ([1]; remdesivir ip, 2 and 6 h) was “below the detectable line”.
For `N#C[C@@]1(c2ccc3c(N)ncnn23)O[C@H](COP(=O)(O)O)[C@@H](O)[C@H]1O` [Nuc-MP], the “Concentration in PBMCs” value ([1]; 2 h) was 0.44 ng/10^6 cells, the Concentration in epididymis ([1]; 2 h) was 6493.99 ng/g tissue and the Concentration in lung ([1]; 2 h) was 3904.37 ng/g tissue. For the same compound, the “Concentration in PBMCs” value ([1]; 6 h) was 0.32 ng/10^6 cells, the Concentration in epididymis ([1]; 6 h) was 555.72 ng/g tissue and the Concentration in lung ([1]; 6 h) was 309.88 ng/g tissue.
For `C[C@H](NP(=O)(O)OC[C@H]1O[C@@](C#N)(c2ccc3c(N)ncnn23)[C@H](O)[C@@H]1O)C(=O)O` [Ala-Nuc], the “Concentration in PBMCs” value ([1]; 2 h) was 0.55 ng/10^6 cells, the Concentration in brain ([1]; 2 h) was 24.16 ng/g tissue and the Concentration in epididymis ([1]; 2 h) was 24.05 ng/g tissue. The Concentration in heart ([1]; 2 h) was 3908.49 ng/g tissue, the Concentration in liver ([1]; 2 h) was 1304.94 ng/g tissue and the Concentration in lung ([1]; 2 h) was 82.87 ng/g tissue. For the same compound, the “Concentration in PBMCs” value ([1]; 6 h) was 0.50 ng/10^6 cells, the Concentration in brain ([1]; 6 h) was 38.27 ng/g tissue and the Concentration in epididymis ([1]; 6 h) was 48.37 ng/g tissue. For the same compound, the Concentration in heart ([1]; 6 h) was 5730.68 ng/g tissue, the Concentration in liver ([1]; 6 h) was 416.97 ng/g tissue and the Concentration in lung ([1]; 6 h) was 73.42 ng/g tissue.
In the case of `CC(C)OC(=O)[C@H](C)N[P@](=O)(OC[C@@]1(N=[N+]=[N-])O[C@@H](n2ccc(N)nc2=O)[C@@H](F)[C@@H]1O)Oc1ccccc1` [CL-236], the EC50 (SARS-CoV-2 [2]; Severe acute respiratory syndrome coronavirus 2, Vero C1008, 48 h, Vero E6, MOI 0.05, qRT-PCR, 48 h, read-out: EC50, SARS-CoV-2 RNA replication) is reported as 4.31 µM, the “selectivity index (SI)” value (SARS-CoV-2 [2]; Vero E6) is reported as 15.35 and the “cytopathic effect (CPE) of SARS-CoV-2” value (SARS-CoV-2 [2]; Vero E6, 48 h) is reported as “protected the cells from SARS-CoV-2-caused cell death”. The CC50 at 48 h [3] was 66.2 µM, the “selectivity index (SI)” value (SARS-CoV-2 [4]; Calu-3) was 83 and the EC50 (SARS-CoV-2 [4]; Severe acute respiratory syndrome coronavirus 2, Calu-3, MOI 0.05, qRT-PCR, 48 h, read-out: EC50, SARS-CoV-2 RNA replication) was 1.2 µM. The CC50 at 48 h [5] was greater than 102 µM, the EC50 (HCoV-OC43; Betacoronavirus 1, OC43, NCI-H460, evaluated by CPE, read-out: EC50, HCoV-OC43 infection) was 1.2 µM and the “HCoV-OC43 N protein expression” value (HCoV-OC43; Western blot, 48 h) was “decrease in N protein expression”. For the same compound, the SI (HCoV-OC43; evaluated by CPE) was 20, the EC50 [6] was 1.2 to 4.3 µM and the “selective index (SI)” value [6] was 15–83.
